The text below walks through data of PubChem BioAssay (NCI).

Values joined by “and” are separate entries in the source; they are usually repeats but may differ in a detail not shown here. Identical values can stand only once.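 Method: 48-hour compound exposure of cells in 96-well plates, five concentrations, linear interpolation of endpoints. Here, GI50 denotes the concentration required for 50% inhibition of growth. TGI marks complete inhibition of growth.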

One test deals with UACC-257 melanoma. The experiment in a line: DTP human tumour cell line panel, 48 h.
`N[C@H](C(=O)O)[C@@H]1CC(Cl)=NO1`: the GI50 is 84.8 µM and the TGI is over 1000 µM.
Turning to `Oc1ccc2ccccc2c1N=Nc1cccc2ccccc12`, the TGI was over 100 µM.
`COc1ccc2c(c1)NC1=C(C(=O)OC1)C2c1cc(OC)c(OC)c(OC)c1` (stereo unspecified): the GI50 was under 0.01 µM and the TGI is over 100 µM.
Consider `CCOc1cc(C(C)(C)C)ccc1C1=N[C@H](c2ccc(Cl)cc2)[C@H](c2ccc(Cl)cc2)N1C(=O)N1CCN(CC#Cc2cccc3c2CN([C@@H]2CCC(=O)NC2=O)C3=O)CC1`, for which the GI50 is 1.85 µM and the TGI is 14.8 µM.
`NCCCNCCS` displayed a TGI of over 100 µM.
As to `O=C1C(=O)c2ccccc2C(O)=C1C(C1=C(O)c2ccccc2C(=O)C1=O)c1ccc(Cl)cc1`, the TGI turned out to be 17 µM.
On the same count and under the same terms, to `Nc1ncnc2c1ncn2C1C=C(CO)C(O)C1O` (stereo unspecified) belongs over 100 µM; to `O=C(O)CSCCc1ccccc1`, over 100 µM.
Take `O=NNc1ccc2ccccc2n1`: the TGI was over 100 µM.
`COc1ccc(C(C#N)NC23CC4CC(CC(C4)C2)C3)cc1` (stereo unspecified) displayed a TGI of over 100 µM.
Take `CC(C)(C)c1cc([N+](=O)[O-])cc([N+](=O)[O-])c1O`: the TGI is over 10 µM.
In turn, `Cc1cc(N(CC(C)Br)CC(C)Br)ccc1N=Nc1ccccc1C(=O)O` (stereo unspecified) had a TGI of 19 µM.

The subject of another test is K-562 leukemia. The experiment in a line: DTP human tumour cell line panel, 48 h.
On to `CCCCCCCCCCCCCCCCCCOC[C@H](COP(=O)(O)O[C@H]1[C@H](O)[C@@H](O)[C@H](O)C[C@H]1O)OC`, for which the GI50 was > 100 µM and 18.4 µM; the TGI was > 100 µM and 55.2 µM.
As to `Nc1n[nH]c2cccc(C#Cc3cccc(NC(=O)c4cccc(C(F)(F)F)c4)c3)c12`, the concentration for 50% growth inhibition (GI50) was 0.19 µM and the total growth inhibition concentration (TGI) was found to be 11.1 µM.
On to `COCCOC(=O)C1=C(O)c2ccccc2S(=O)(=O)N1C`, for which the TGI was over 100 µM.
Still for that read-out and setting: the figure for `CNC(=O)OCc1nc(SSC(C)(C)C)n(C)c1COC(=O)NC` is 7.06 µM.
`CC(C)C(O)(C(C)C)C(C)C` displayed a TGI of over 100 µM.
Consider `CC1(C)N=C(N)N=C(N)N1c1ccc(CCC(=O)Nc2ccc(S(=O)(=O)F)cc2)c(Cl)c1`, for which the GI50 was 0.342 µM and the TGI is over 100 µM.
`COC(=O)c1ccc2[nH]c(O)c(C(=Nc3ccc(N(C)C(=O)CN4CCN(C)CC4)cc3)c3ccc4c(c3)OCO4)c2c1`: the 50% growth inhibitory concentration (GI50) is 0.056 µM and the TGI amounted to 6.16 µM.
For the compound `COc1ccc2c(c1)OC1=C(C(=O)OC1)C2c1cc(OC)c2c(c1)OCCO2` (stereo unspecified), the GI50 was 0.0432 µM and the TGI was over 100 µM.
The corresponding values for `N[C@H](C(=O)O)[C@@H]1CC(Cl)=NO1` are 7.16 µM and over 944 µM.
For `Oc1ccc2ccccc2c1N=Nc1cccc2ccccc12`, the TGI is over 100 µM.
As to `COc1ccc2c(c1)NC1=C(C(=O)OC1)C2c1cc(OC)c(OC)c(OC)c1` (stereo unspecified), the 50% growth inhibitory concentration (GI50) is under 0.01 µM and the TGI is over 100 µM.
For `CCOc1cc(C(C)(C)C)ccc1C1=N[C@H](c2ccc(Cl)cc2)[C@H](c2ccc(Cl)cc2)N1C(=O)N1CCN(CC#Cc2cccc3c2CN([C@@H]2CCC(=O)NC2=O)C3=O)CC1`, the GI50 is 2.66 µM and the TGI is over 100 µM.
Take `NCCCNCCS`: the TGI was over 100 µM.
The compound `O=C1C(=O)c2ccccc2C(O)=C1C(C1=C(O)c2ccccc2C(=O)C1=O)c1ccc(Cl)cc1` registered a total growth inhibition concentration (TGI) of 39.2 µM.
On the same count and under the same terms, the figure for `Nc1ncnc2c1ncn2C1C=C(CO)C(O)C1O` (stereo unspecified) is 39.6 µM.
The same measure, in the same setting: the figure for `O=C(O)CSCCc1ccccc1` is over 100 µM.
Still for that read-out and setting: the figure for `O=NNc1ccc2ccccc2n1` is over 100 µM; for `COc1ccc(C(C#N)NC23CC4CC(CC(C4)C2)C3)cc1` (stereo unspecified) it is over 100 µM; for `CC(C)(C)c1cc([N+](=O)[O-])cc([N+](=O)[O-])c1O` it is over 10 µM.
Consider `Cc1cc(N(CC(C)Br)CC(C)Br)ccc1N=Nc1ccccc1C(=O)O` (stereo unspecified), for which the total growth inhibition concentration (TGI) was 4.8 µM.

For the next test, the system named is HCT-116 colon. The experiment in a line: DTP human tumour cell line panel, 48 h.
Turning to `CCCCCCCCCCCCCCCCCCOC[C@H](COP(=O)(O)O[C@H]1[C@H](O)[C@@H](O)[C@H](O)C[C@H]1O)OC`, the GI50 was > 100 µM and 15.8 µM; the concentration for total growth inhibition (TGI) was > 100 µM and 30.7 µM.
With `Nc1n[nH]c2cccc(C#Cc3cccc(NC(=O)c4cccc(C(F)(F)F)c4)c3)c12`, the GI50 was 0.855 µM and the TGI was 4.61 µM.
Compound `COCCOC(=O)C1=C(O)c2ccccc2S(=O)(=O)N1C` returned a TGI of over 100 µM.
In the case of `CNC(=O)OCc1nc(SSC(C)(C)C)n(C)c1COC(=O)NC`, the TGI was 3.26 µM.
The compound `CC(C)C(O)(C(C)C)C(C)C` had a total growth inhibition concentration (TGI) of over 100 µM.
Consider `CC1(C)N=C(N)N=C(N)N1c1ccc(CCC(=O)Nc2ccc(S(=O)(=O)F)cc2)c(Cl)c1`, for which the GI50 was 0.268 µM and the TGI was over 100 µM.
As for `COC(=O)c1ccc2[nH]c(O)c(C(=Nc3ccc(N(C)C(=O)CN4CCN(C)CC4)cc3)c3ccc4c(c3)OCO4)c2c1`, the 50% growth inhibitory concentration (GI50) is 0.197 µM and the TGI amounted to 1.52 µM.
With `COc1ccc2c(c1)OC1=C(C(=O)OC1)C2c1cc(OC)c2c(c1)OCCO2` (stereo unspecified), the 50% growth inhibitory concentration (GI50) was 0.0478 µM and the TGI is over 31.9 µM.
`N[C@H](C(=O)O)[C@@H]1CC(Cl)=NO1`: the GI50 is 3.71 µM and the TGI is over 1000 µM.
Compound `Oc1ccc2ccccc2c1N=Nc1cccc2ccccc12` returned a TGI of over 100 µM.
As for `COc1ccc2c(c1)NC1=C(C(=O)OC1)C2c1cc(OC)c(OC)c(OC)c1` (stereo unspecified), the 50% growth inhibitory concentration (GI50) was under 0.01 µM and the TGI was over 100 µM.
Regarding `CCOc1cc(C(C)(C)C)ccc1C1=N[C@H](c2ccc(Cl)cc2)[C@H](c2ccc(Cl)cc2)N1C(=O)N1CCN(CC#Cc2cccc3c2CN([C@@H]2CCC(=O)NC2=O)C3=O)CC1`, the GI50 was 1.97 µM and the TGI was over 36.3 µM.
For `NCCCNCCS`, the TGI was over 100 µM.
`O=C1C(=O)c2ccccc2C(O)=C1C(C1=C(O)c2ccccc2C(=O)C1=O)c1ccc(Cl)cc1`: the TGI came to 18.2 µM.
On to `Nc1ncnc2c1ncn2C1C=C(CO)C(O)C1O` (stereo unspecified), for which the total growth inhibition concentration (TGI) was 12.6 µM.
The compound `O=C(O)CSCCc1ccccc1` came in with a total growth inhibition concentration (TGI) of over 100 µM.
Still for that read-out and setting: to `O=NNc1ccc2ccccc2n1` belongs over 100 µM; to `COc1ccc(C(C#N)NC23CC4CC(CC(C4)C2)C3)cc1` (stereo unspecified), over 100 µM; to `CC(C)(C)c1cc([N+](=O)[O-])cc([N+](=O)[O-])c1O`, over 10 µM.
On to `Cc1cc(N(CC(C)Br)CC(C)Br)ccc1N=Nc1ccccc1C(=O)O` (stereo unspecified), for which the total growth inhibition concentration (TGI) is 20.3 µM.

A word on the GI50: it is the concentration that inhibits growth by half. The term TGI denotes the concentration giving total growth inhibition.
